Assay [1] deals with C57BL/6 male mice. In words: PCP-induced hyperactivity model of psychosis. Particulars: vs vehicle+PCP control. The class given is in vivo. How it is done: (§1) Dosing of the compounds is by intraperitoneal (i.p.) injection or oral gavage (p.o.). Intraperitoneal injection is accomplished by restraining the animal, exposing the abdomen and inserting the needle just above the knees on the mouse's right side. Oral gavage is performed by restraining the animal in such a way that its head is tilted back and the esophagus is relatively straight. The gavage needle (20 G×1.5″, Cadence Science) is inserted into the mouth in line with the body and gently pushed along the esophagus and into the stomach. If resistance is encountered the needle is removed and reinserted.
Psychostimulant-induced hyperactivity is measured by injecting animals with PCP and monitoring the animals' activity levels in VersaMax chambers (Accuscan Instruments, Columbus, Ohio) measuring 40×40 cm. Locomotor activity is detected by photobeam breaks as the animal crosses each beam. The animal is placed in the center of the field and left undisturbed for 20 minutes to measure its spontaneous activity in a novel environment. Measurements used to assess locomotor activity include: horizontal activity, total distance traveled, vertical activity (rearing events—animal raises up on hindlimbs), rotation, stereotypy, and distance traveled in the center compared to total distance traveled (center:total distance ratio). The NMDA antagonist PCP induces a psychosis-like syndrome manifest as hyperactivity and increased stereotypic behavior. Known antipsychotics are able to reverse psychostimulant-induced hyperactivity and stereotypy.
C57BL/6 male mice were given either compound 1-1 or vehicle by intraperitoneal injection (FIG. 1) or oral gavage (FIG. 2). Twenty minutes (for i.p.) or forty minutes (for p.o.) later, they were injected with PCP (5 mg/kg, i.p.). Ten minutes later, the mice were placed in activity chambers and their locomotor activity in the horizontal dimension was monitored by infrared beam breaks for 20 min (5 consecutive 4-minute intervals (INT) as indicated).
C57BL/6 male mice were given either compound 2-1 or vehicle by intraperitoneal injection (FIG. 3) or oral gavage (FIG. 4). Twenty minutes (for i.p.) or 40 minutes (for p.o.) later, they were injected with PCP (5 mg/kg, i.p.). Ten minutes later, the mice were placed in activity chambers and their locomotor activity in the horizontal dimension was monitored by infrared beam breaks for 20 min (5 consecutive 4-minute intervals (INT) as indicated).
C57BL/6 male mice were given either compound 11-1 or vehicle by intraperitoneal injection. Five minutes later they were injected with PCP (5 mg/kg, i.p.). Ten minutes later, the mice were placed in activity chambers and their locomotor activity in the horizontal dimension was monitored by infrared beam breaks for 20 min (5 consecutive 4-minute intervals (INT) as indicated).

Assay [2] has as its target T1, PDE10 (Homo sapiens, UniProt Q9Y233).
T1 construct: made in house; host or cells: Sf9 insect cells (baculovirus)
As to the kind of experiment: PDE10 biochemical assay (two-step Thompson and Appleman method or SPA). Particulars: PDE10 inhibition.

Assay [3] deals with C57BL/6 male mice. In words: Conditioned avoidance response (CAR) model of psychosis. Type of assay: in vivo. Particulars: vs vehicle. How it is done: as §1
Conditioned avoidance response (CAR) is a behavioral test to evaluate the antipsychotic effect of a test compound. It utilizes a shuttle box (Med Associates, St. Albans, Vt.) with two identical chambers separated by a retractable door. Each chamber is fitted with a metal grid floor that is capable of delivering electric shocks independently. A computer program is used to implement the testing paradigm as well as record the animal's movement between the two chambers through infrared beam sensors. The testing paradigm is as follows. A mouse is placed into one chamber. A light (conditioned stimulus, CS) comes on. Five seconds later, mild electric shocks (0.4 mA; (unconditioned stimulus, US) are delivered to the chamber where the mouse is located (as detected by infrared beams) until the mouse escapes to the adjacent chamber or until 10 sec has elapsed. The US and CS always co-terminate. With randomized inter-trial intervals averaging 15 sec, 30 such CS-US pairing trials are given to each mouse each day. For each trial, an escape response is registered if the mouse crosses to the other chamber after being shocked (i.e., during the 10-sec US period), and an avoidance response is registered if the mouse crosses to the other chamber during the first 5-sec CS only period. The animals are trained in this paradigm for 30-40 days, during which the average percentage of avoidance responses will improve to 80-90%. […] These trained animals are then used for compound testing with the same paradigm.
C57BL/6 male mice were trained in the CAR paradigm to predict and avoid the noxious stimulus (foot shock), reaching a plateau of approximately 25 avoidance responses per 30 trials each day. […] Vehicle treatment and compound treatment were given to the same animals on alternating days, and the effect of compound in reducing avoidance response was analyzed through within-subject comparison (paired t-test).
C57BL/6 male mice were trained in the CAR paradigm to predict and avoid the noxious stimulus (foot shock), reaching a plateau of approximately 25-28 avoidance responses per 30 trials (“training plateau”) each day. […] Vehicle treatment and compound treatment were given to the same animals on alternating days, and the effect of compound in reducing avoidance response was analyzed through within-subject comparison (paired t-test).

The subject of assay [4] is PDE10. The following applies: Soderling and Beavo 2000, read-out: IC50 (50% inhibitory concentration); cited from earlier work.
Assay [5] deals with PDE10. Particulars: PDE10, in vitro binding studies; read-out: dissociation constant (Kd) for cGMP binding; cited from earlier work.
Where [6] appears, read: 10 mg/kg i.p., 20 min before PCP (5 mg/kg, i.p.).
Where [7] appears, read: 2 mg/kg oral gavage, 55 minutes prior to testing.
Where [8] appears, read: 5 mg/kg oral gavage, 55 minutes prior to testing.
The mark [9] stands for this setting: 10 mg/kg oral gavage, 55 minutes prior to testing.

T1 sequence (Q9Y233 1-779 isoform Q9Y233-1): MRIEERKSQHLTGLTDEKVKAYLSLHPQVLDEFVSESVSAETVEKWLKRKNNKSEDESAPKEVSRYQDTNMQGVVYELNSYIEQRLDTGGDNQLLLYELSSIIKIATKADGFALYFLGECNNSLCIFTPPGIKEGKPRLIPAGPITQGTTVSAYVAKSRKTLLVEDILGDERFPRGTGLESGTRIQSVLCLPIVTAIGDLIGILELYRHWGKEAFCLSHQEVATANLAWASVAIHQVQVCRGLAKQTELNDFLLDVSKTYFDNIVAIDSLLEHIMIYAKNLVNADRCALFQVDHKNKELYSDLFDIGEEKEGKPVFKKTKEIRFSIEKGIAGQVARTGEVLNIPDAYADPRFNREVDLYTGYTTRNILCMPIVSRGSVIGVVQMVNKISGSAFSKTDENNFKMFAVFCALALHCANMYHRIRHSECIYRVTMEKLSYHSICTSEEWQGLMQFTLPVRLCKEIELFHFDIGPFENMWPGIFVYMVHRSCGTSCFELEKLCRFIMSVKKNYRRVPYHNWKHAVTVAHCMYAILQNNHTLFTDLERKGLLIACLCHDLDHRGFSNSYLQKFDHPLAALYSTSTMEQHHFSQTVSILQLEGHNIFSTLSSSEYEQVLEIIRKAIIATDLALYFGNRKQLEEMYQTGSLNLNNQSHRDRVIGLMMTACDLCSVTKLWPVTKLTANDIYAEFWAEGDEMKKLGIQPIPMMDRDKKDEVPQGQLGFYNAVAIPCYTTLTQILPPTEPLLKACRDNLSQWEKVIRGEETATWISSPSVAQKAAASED

As for `COc1cc(-c2coc(C(=O)C(OC)c3ccc(N4CCOCC4)cc3)n2)cc(OC)c1Br` (stereo not drawn) [Compound 2-1, 1-(4-(4-Bromo-3,5-Dimethoxyphenyl)Oxazol-2-Yl)-2-Methoxy-2-(4-Morpholinophenyl)-Ethanone], the “reduction of PCP-induced hyperactivity (horizontal locomotor activity)” value (“reduction of PCP-induced hyperactivity” for short) in the assay with C57BL/6 male mice [1] (setting [6]) was “significantly reduces”; in the assay on C57BL/6 male mice [1] (10 mg/kg oral gavage, 40 min before PCP (5 mg/kg, i.p.)), “effective”. The IC50 against PDE10 [2] is no more than 1 µM. In addition, the “reduction of number of avoidance responses (CAR)” value (shortened to “reduction of number … (CAR)”) in the assay on C57BL/6 male mice [3] (12 mg/kg oral gavage, 30 minutes before testing) is reported as “significantly reduces”.
As to `CC(C)Cn1c(=O)n(C)c(=O)c2[nH]cnc21` [IBMX], in the assay on PDE10 [4], the IC50 was 2.6 µM.
Take `COc1cc(-c2coc(C(=O)C(OC)c3ccc(-c4nnc(C)o4)cc3)n2)cc(OC)c1Br` (stereo not drawn) [Compound 11-1, 1-(4-(4-Bromo-3,5-Dimethoxyphenyl)Oxazol-2-Yl)-2-Methoxy-2-(4-(5-Methyl-1,3,4-Oxadiazol-2-Yl)Phenyl)Ethanone]: in the assay on C57BL/6 male mice [1] (10 mg/kg i.p., 5 min before PCP (5 mg/kg, i.p.)), the “reduction of PCP-induced hyperactivity” value was “significantly reduces”. The IC50 at PDE10 [2] is no more than 1 µM.
In general, Kd refers to a measure of binding affinity in units of concentration. For `Nc1nc2c(ncn2[C@@H]2O[C@@H]3COP(=O)(O)O[C@H]3[C@H]2O)c(=O)[nH]1` [cGMP], on PDE10 [5], the Kd was greater than 9 µM.
The compound `CCOC(C(=O)c1ccc(-c2cc(OC)c(Br)c(OC)c2)o1)c1ccc(-c2nnc(C)o2)cc1` (stereo not drawn) [Compound 47-1, 1-(5-(4-Bromo-3,5-Dimethoxyphenyl)Furan-2-Yl)-2-Ethoxy-2-(4-(5-Methyl-1,3,4-Oxadiazol-2-Yl)Phenyl)Ethanone] had an IC50 against PDE10 [2] of no more than 1 µM. The “reduction of number … (CAR)” value is given as “a trend that did not reach significance” with C57BL/6 male mice [3] (setting [7]), “significantly reduces” in the assay with C57BL/6 male mice [3] (setting [8]) and “significantly reduces” in the assay with C57BL/6 male mice [3] (setting [9]).
On PDE10 [2], `COc1cc(-c2ccc(C(=O)C(OC)c3ccc(-c4nnc(C)s4)cc3)o2)cc(OC)c1Br` (stereo not drawn) [Compound 34-1, 1-(5-(4-Bromo-3,5-Dimethoxyphenyl)Furan-2-Yl)-2-Methoxy-2-(4-(5-Methyl-1,3,4-Thiadiazol-2-Yl)Phenyl)Ethanone] came in with an IC50 of no more than 1 µM. Also, the “reduction of number … (CAR)” value in the assay on C57BL/6 male mice [3] (10 mg/kg oral gavage, 25 minutes prior to testing) is “significantly reduces”.
For `COc1cc(-c2csc(C(=O)C(OC)c3ccc(N4CCOCC4)cc3)n2)cc(OC)c1Br` (stereo not drawn) [Compound 1-1, 1-(4-(4-Bromo-3,5-Dimethoxyphenyl)Thiazol-2-Yl)-2-Methoxy-2-(4-Morpholinophenyl)Ethanone], the “reduction of PCP-induced hyperactivity” value with C57BL/6 male mice [1] (setting [6]) is reported as “significantly reduces”; with C57BL/6 male mice [1] (oral gavage, dose not given, 40 min before PCP (5 mg/kg, i.p.)), “effective”. The compound also yielded an IC50 against PDE10 [2] of no more than 1 µM.
On PDE10 [2], `CCOC(C(=O)c1ccc(-c2cc(OC)c(Cl)c(OC)c2)o1)c1ccc(-c2nnc(C)o2)cc1` (stereo not drawn) [Compound 63-1, 1-(5-(4-Chloro-3,5-Dimethoxyphenyl)Furan-2-Yl)-2-Ethoxy-2-(4-(5-Methyl-1,3,4-Oxadiazol-2-Yl)Phenyl)Ethanone] had an IC50 of no more than 1 µM. For the same compound, the “reduction of number … (CAR)” value in the assay on C57BL/6 male mice [3] (setting [7]), with C57BL/6 male mice [3] (setting [8]) and with C57BL/6 male mice [3] (setting [9]) was “significantly reduces” throughout.

These data come from US10106516B2, “PDE10 inhibitors and related compositions and methods” (Omeros Corporation, priority 2010, dated 2018).
